The results in this text go back to paper PMC7236083 (Hormones & cancer, 2020).

In test [1] the target is T1, progesterone receptor (PR) (Homo sapiens, UniProt P06401).
T1 sequence (P06401 675-933): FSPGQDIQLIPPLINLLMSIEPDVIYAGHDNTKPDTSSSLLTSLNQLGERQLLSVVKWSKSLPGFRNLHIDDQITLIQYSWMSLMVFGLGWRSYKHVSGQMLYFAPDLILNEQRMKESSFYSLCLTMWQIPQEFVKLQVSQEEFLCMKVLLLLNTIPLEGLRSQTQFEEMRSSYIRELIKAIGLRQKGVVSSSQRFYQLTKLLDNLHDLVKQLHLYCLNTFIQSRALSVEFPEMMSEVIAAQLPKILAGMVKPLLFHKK
Put plainly: fluorescence polarization competitive binding assay.

Test [2] has as its target T2, glucocorticoid receptor (GR) (Homo sapiens, UniProt P04150).
T2 sequence (P04150 1-777): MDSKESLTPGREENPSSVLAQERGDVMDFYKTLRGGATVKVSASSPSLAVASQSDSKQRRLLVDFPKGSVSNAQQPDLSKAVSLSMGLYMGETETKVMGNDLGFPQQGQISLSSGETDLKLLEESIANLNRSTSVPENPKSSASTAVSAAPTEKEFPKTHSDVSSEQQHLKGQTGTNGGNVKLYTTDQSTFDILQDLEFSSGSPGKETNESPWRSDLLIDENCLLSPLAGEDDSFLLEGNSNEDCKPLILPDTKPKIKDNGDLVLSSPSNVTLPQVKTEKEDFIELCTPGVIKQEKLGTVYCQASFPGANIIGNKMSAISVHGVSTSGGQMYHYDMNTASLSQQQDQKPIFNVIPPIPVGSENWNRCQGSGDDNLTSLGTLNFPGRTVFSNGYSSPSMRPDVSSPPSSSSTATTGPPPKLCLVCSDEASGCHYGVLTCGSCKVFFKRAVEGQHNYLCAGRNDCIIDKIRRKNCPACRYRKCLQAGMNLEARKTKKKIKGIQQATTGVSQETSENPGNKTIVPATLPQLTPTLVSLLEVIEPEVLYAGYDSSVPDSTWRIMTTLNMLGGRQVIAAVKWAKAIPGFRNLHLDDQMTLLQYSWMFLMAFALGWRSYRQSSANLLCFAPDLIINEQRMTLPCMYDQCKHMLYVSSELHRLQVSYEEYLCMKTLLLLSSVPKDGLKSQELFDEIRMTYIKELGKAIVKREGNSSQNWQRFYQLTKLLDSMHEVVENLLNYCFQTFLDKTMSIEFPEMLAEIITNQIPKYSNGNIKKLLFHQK
The test is described as above.

As to `O=c1cc(-c2ccccc2)oc2cc(O)c(O)c(O)c12` [baicalein], the 50% inhibitory concentration (IC50) in test [1] is 15.3 µM; in test [2] it was 19.3 µM.
